Assay type in all cases: in vivo, human
Assay [1] deals with glaucoma. The experiment in a line: Prevention of recurrence in a patient successfully treated for glaucoma, one eye treated and the other left untreated. The note with it: untreated eye shows signs of recurrence. The text has this:
A composition comprising the ACE inhibitor enalapril is directly applied to the vitreous surface of one eye while the other eye is left untreated.
A composition comprising the angiotensin receptor blocker losartan is directly applied to the vitreous surface of one eye while the other eye is left untreated.
A composition comprising the ACE inhibitor enalapril is applied to the eye by intravitreal or intraocular injection while the other eye is left untreated.
A composition comprising the angiotensin receptor blocker losartan is applied to the eye by intravitreal or intraocular injection while the other eye is left untreated.

For assay [2], the system named is glaucoma. The experiment in a line: Treatment of a patient diagnosed with glaucoma, one eye treated and the other left untreated.
Excerpt: (§1) A patient is diagnosed with glaucoma.
A patient is diagnosed with glaucoma. A composition comprising the ACE inhibitor enalapril is directly applied to the vitreous surface of one eye while the other eye is left untreated.
A patient is diagnosed with glaucoma. A composition comprising the angiotensin receptor blocker losartan is directly applied to the vitreous surface of one eye while the other eye is left untreated.
as §1
A patient is diagnosed with glaucoma. A composition comprising the ACE inhibitor enalapril is applied to the eye by intravitreal or intraocular injection while the other eye is left untreated.
A patient is diagnosed with glaucoma. A composition comprising the angiotensin receptor blocker losartan is applied to the eye by intravitreal or intraocular injection while the other eye is left untreated.

For assay [3], the system named is primary form of glaucoma. The experiment in a line: Ramiprilat formulation given to the eye of a patient with a primary form of glaucoma. As to the method: In this example, a patient with a primary form of glaucoma is administered a topical formulation comprising ramiprilat to the eye. […] The patient's primary form of glaucoma is therefore treated by the […] formulation.
In this example, a patient with a primary form of glaucoma is administered an injectable formulation comprising ramiprilat to the posterior chamber of the eye. […] The patient's primary form of glaucoma is therefore treated by the […] formulation.

The mark [4] stands for this setting: composition applied by intravitreal or intraocular injection.
Setting [5] is: composition directly applied to the vitreous surface of one eye.
Where [6] appears, read: injectable formulation to the posterior chamber of the eye.

Turning to `CCOC(=O)[C@H](CCc1ccccc1)N[C@@H](C)C(=O)N1CCC[C@H]1C(=O)O` [enalapril], the “recurrence of glaucoma, treated eye versus untreated eye” value in assay [1] (setting [4]) and in assay [1] (setting [5]) was “not develop glaucoma” each time. For the same compound, the “symptoms of glaucoma, treated eye versus untreated eye” value in assay [2] (setting [4]) and in assay [2] (setting [5]) was “reduced symptoms of glaucoma” throughout.

As for `CCCCc1nc(Cl)c(CO)n1Cc1ccc(-c2ccccc2-c2nn[nH]n2)cc1` [losartan], the “recurrence of glaucoma, treated eye versus untreated eye” value in assay [1] (setting [4]) and in assay [1] (setting [5]) was “not develop glaucoma” each time. Moreover, the “symptoms of glaucoma, treated eye versus untreated eye” value in assay [2] (setting [4]) and in assay [2] (setting [5]) was “reduced symptoms of glaucoma” each time.

For Ramiprilat, in assay [3] (setting [6]), the “capillary networks and capillary blood supply to the eye” value is “grows capillary networks and increases the capillary blood supply”; the intraocular pressure entry is on record as “reduction in intraocular pressure”; the optic nerve result is listed as “repair to the optic nerve”. Further, in assay [3] (topical formulation to the eye), the “capillary networks and capillary blood supply to the eye” value is “grows capillary networks and increases the capillary blood supply”; the intraocular pressure result was “reduction in intraocular pressure”; the optic nerve result was “repair to the optic nerve”.
